Experimental data: ChEMBL document CHEMBL1201862, “PubChem BioAssay data set” (2004)
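A five-concentration, 48-hour dose response in 96-well plates underlies each endpoint, interpolated linearly between surrounding concentrations. GI50 is the concentration that inhibits growth by half.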 Calls of active or inactive are those of the source. No stated cut-off is given here; in the data, active = GI50 up to about 1.1 µM and inactive = higher.

What was measured:
Test in all cases: NCI-60 cell line screen, 48 h
COLO 205 = test system: COLO 205
K562 = test system: K562
SR = test system: SR
NCI-H23 = test system: NCI-H23
MDA-N = test system: MDA-N
OVCAR-3 = test system: OVCAR-3
Hs-578T = test system: Hs-578T
OVCAR-4 = test system: OVCAR-4
IGROV-1 = test system: IGROV-1
SNB-75 = test system: SNB-75
SNB-19 = test system: SNB-19
SK-MEL-28 = test system: SK-MEL-28
HT-29 = test system: HT-29
MCF7 = test system: MCF7
SK-OV-3 = test system: SK-OV-3
CAKI-1 = test system: CAKI-1
U-251 = test system: U-251
HCT-116 = test system: HCT-116
HCT-15 = test system: HCT-15
UO-31 = test system: UO-31
MOLT-4 = test system: MOLT-4
SW-620 = test system: SW-620
OVCAR-5 = test system: OVCAR-5
OVCAR-8 = test system: OVCAR-8
SF-295 = test system: SF-295
HL-60 = test system: HL-60
Malme-3M = test system: Malme-3M
SN12C = test system: SN12C
UACC-257 = test system: UACC-257
A549 = test system: A549
MDA-MB-435 = test system: MDA-MB-435
KM12 = test system: KM12
NCI-H226 = test system: NCI-H226
TK-10 = test system: TK-10
SK-MEL-2 = test system: SK-MEL-2
EKVX = test system: EKVX
T47D = test system: T47D
HOP-62 = test system: HOP-62
UACC-62 = test system: UACC-62
LOX IMVI = test system: LOX IMVI
NCI-H522 = test system: NCI-H522
BT-549 = test system: BT-549
786-0 = test system: 786-0
RPMI-8226 = test system: RPMI-8226
SF-268 = test system: SF-268
HOP-92 = test system: HOP-92
RXF 393 = test system: RXF 393
CCRF-CEM = test system: CCRF-CEM
NCI-H460 = test system: NCI-H460
A498 = test system: A498
MDA-MB-231 = test system: MDA-MB-231
ACHN = test system: ACHN
M14 = test system: M14
NCI/ADR-RES = test system: NCI/ADR-RES
PC-3 = test system: PC-3
DU-145 = test system: DU-145
SK-MEL-5 = test system: SK-MEL-5
SF-539 = test system: SF-539
HCC 2998 = test system: HCC 2998

Measured: GI50

Oc1ccccc1/C=N/Nc1nnc2c3ccccc3c3ccccc3c2n1
73.6 µM: HCT-15
inactive: COLO 205 > 100 µM | K562 > 100 µM | SR 52.6 µM | NCI-H23 > 100 µM | MDA-N 29.9 µM | OVCAR-3 14.6 µM | Hs-578T > 100 µM | OVCAR-4 > 100 µM | IGROV-1 39.9 µM | SNB-75 20.8 µM | SNB-19 > 100 µM | SK-MEL-28 > 100 µM | HT-29 > 100 µM | MCF7 32.3 µM | SK-OV-3 58.3 µM | CAKI-1 > 100 µM | U-251 > 100 µM | HCT-116 > 100 µM | UO-31 > 100 µM | MOLT-4 > 100 µM | SW-620 82.4 µM | OVCAR-5 > 100 µM | OVCAR-8 > 100 µM | SF-295 32.8 µM | HL-60 > 100 µM | Malme-3M 59.6 µM | SN12C > 100 µM | UACC-257 25.2 µM | A549 > 100 µM | MDA-MB-435 28.1 µM | KM12 71.4 µM | NCI-H226 > 100 µM | TK-10 45.4 µM | SK-MEL-2 55.5 µM | EKVX > 100 µM | T47D 65 µM | HOP-62 42.6 µM | UACC-62 61.4 µM | LOX IMVI 84.3 µM | NCI-H522 20 µM | BT-549 > 100 µM | 786-0 > 100 µM | RPMI-8226 > 100 µM | SF-268 > 100 µM | HOP-92 > 100 µM | RXF 393 25.1 µM | CCRF-CEM > 100 µM | NCI-H460 41.8 µM | A498 > 100 µM | MDA-MB-231 > 100 µM | ACHN > 100 µM | M14 > 100 µM | NCI/ADR-RES 47.9 µM | PC-3 80.5 µM | DU-145 > 100 µM | SK-MEL-5 48.3 µM | SF-539 > 100 µM

CCOC(=O)N1CC2(C(=O)OC)C=CC1C(C(=O)OC)C2 (stereo not given)
inactive: COLO 205 > 100 µM | K562 > 100 µM | SR > 100 µM | NCI-H23 > 100 µM | MDA-N > 100 µM | OVCAR-3 > 100 µM | Hs-578T > 100 µM | HCC 2998 > 100 µM | OVCAR-4 > 100 µM | IGROV-1 > 100 µM | SNB-75 > 100 µM | SNB-19 > 100 µM | SK-MEL-28 > 100 µM | MCF7 > 100 µM | SK-OV-3 > 100 µM | CAKI-1 > 100 µM | U-251 > 100 µM | HCT-116 > 100 µM | UO-31 > 100 µM | MOLT-4 > 100 µM | SW-620 > 100 µM | OVCAR-5 > 100 µM | OVCAR-8 > 100 µM | SF-295 > 100 µM | HL-60 > 100 µM | Malme-3M > 100 µM | SN12C > 100 µM | UACC-257 > 100 µM | A549 > 100 µM | MDA-MB-435 > 100 µM | KM12 > 100 µM | NCI-H226 > 100 µM | TK-10 > 100 µM | SK-MEL-2 > 100 µM | EKVX > 100 µM | T47D > 100 µM | HOP-62 > 100 µM | UACC-62 > 100 µM | LOX IMVI > 100 µM | NCI-H522 > 100 µM | BT-549 > 100 µM | 786-0 > 100 µM | RPMI-8226 > 100 µM | SF-268 > 100 µM | RXF 393 > 100 µM | CCRF-CEM > 100 µM | NCI-H460 > 100 µM | A498 > 100 µM | MDA-MB-231 > 100 µM | ACHN > 100 µM | M14 > 100 µM | NCI/ADR-RES > 100 µM | PC-3 > 100 µM | DU-145 > 100 µM | SK-MEL-5 > 100 µM | SF-539 > 100 µM
> 100 µM: HCT-15

CC(c1ccccc1)n1cncc1C(=O)NN1CCN(C)CC1 (stereo not given)
> 10 µM: HCT-15
inactive: COLO 205 > 10 µM | K562 > 10 µM | SR > 10 µM | NCI-H23 > 10 µM | MDA-N > 10 µM | OVCAR-3 > 10 µM | Hs-578T > 10 µM | OVCAR-4 > 10 µM | IGROV-1 > 10 µM | SNB-19 > 10 µM | SK-MEL-28 > 10 µM | HT-29 > 10 µM | MCF7 > 10 µM | SK-OV-3 > 10 µM | CAKI-1 > 10 µM | U-251 > 10 µM | HCT-116 > 10 µM | MOLT-4 > 10 µM | SW-620 > 10 µM | OVCAR-5 > 10 µM | OVCAR-8 > 10 µM | SF-295 > 10 µM | HL-60 > 10 µM | Malme-3M > 10 µM | SN12C > 10 µM | UACC-257 > 10 µM | A549 > 10 µM | MDA-MB-435 > 10 µM | KM12 > 10 µM | NCI-H226 3.81 µM | TK-10 > 10 µM | SK-MEL-2 > 10 µM | EKVX > 10 µM | T47D > 10 µM | HOP-62 > 10 µM | UACC-62 > 10 µM | LOX IMVI > 10 µM | NCI-H522 > 10 µM | BT-549 > 10 µM | 786-0 > 10 µM | RPMI-8226 > 10 µM | SF-268 > 10 µM | RXF 393 > 10 µM | CCRF-CEM > 10 µM | NCI-H460 > 10 µM | A498 > 10 µM | MDA-MB-231 > 10 µM | ACHN > 10 µM | M14 > 10 µM | NCI/ADR-RES > 10 µM | PC-3 > 10 µM | DU-145 > 10 µM | SK-MEL-5 > 10 µM | SF-539 > 10 µM
